pIC50: −log10 of the molar value.
These compounds were tested against T1, CETP (Homo sapiens, UniProt P11597) (assay: CETP activity in vitro: transfer of [3H]CE from HDL donor to LDL acceptor particles). Conditions: @ 100 μm; footnotes A and B of Table 6.
T1 construct: made in house; host or cells: CHO cells (serum-free conditioned medium)
T1 sequence (P11597 18-493): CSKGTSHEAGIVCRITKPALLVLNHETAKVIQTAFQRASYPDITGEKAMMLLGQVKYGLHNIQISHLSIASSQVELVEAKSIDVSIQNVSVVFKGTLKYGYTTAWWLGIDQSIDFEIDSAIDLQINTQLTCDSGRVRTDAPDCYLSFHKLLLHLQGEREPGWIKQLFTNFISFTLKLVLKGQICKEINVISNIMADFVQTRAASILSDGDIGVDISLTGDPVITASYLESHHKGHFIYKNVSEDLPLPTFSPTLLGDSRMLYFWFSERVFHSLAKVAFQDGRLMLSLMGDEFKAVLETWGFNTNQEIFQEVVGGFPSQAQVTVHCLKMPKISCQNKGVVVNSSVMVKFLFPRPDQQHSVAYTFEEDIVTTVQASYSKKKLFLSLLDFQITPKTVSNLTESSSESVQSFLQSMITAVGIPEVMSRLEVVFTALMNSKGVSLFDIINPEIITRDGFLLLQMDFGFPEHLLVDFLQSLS
Type: biochemical
In short: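 CETP from conditioned medium of CETP-transfected CHO cells incubated with [3H]CE-labelled HDL donor and LDL acceptor, pH 7.4 Tris buffer with NaCl, EDTA and 1% BSA, 2 h at 37 °C. LDL precipitated with dextran sulfate/MgCl2, filtered, and transferred radioactivity counted; IC50 reported.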
With `COC(=O)c1c(C(F)F)nc(C(F)(F)F)c(CSc2ccc(NC(C)=O)cc2)c1CC(C)C` [Compound 204, Methyl 5-[(4-(Acetylamino)phenyl)thiomethyl]-2-(difluoromethyl)-4-(2-methylpropyl)-6-(trifluoromethyl)-3-pyridinecarboxylate] the CE transferred was “^B80% CE transferred @ 100 μm”.

Same assay, conditions: IC50, Table 7, compounds of formula T-7
`COC(=O)c1c(C(F)F)nc(C(F)(F)F)c(SCc2cccc(Br)c2)c1CC(C)C` [Compound 229] gave a pIC50 of 4.30.
For `COC(=O)c1c(C(F)F)nc(C(F)(F)F)c(SCc2cccc(OC)c2)c1CC(C)C` [Compound 231], the pIC50 was 4.30.

Same assay, conditions: Table 6, compounds of formula T-6; read-out: IC50
`COC(=O)c1c(C(F)F)nc(C(F)(F)F)c(CSc2c(Cl)cccc2Cl)c1CC(C)C` [Compound 201, Methyl 5-[(2,6-Dichlorophenyl)thiomethyl]-2-(difluoromethyl)-4-(2-methylpropyl)-6-(trifluoromethyl)-3-pyridinecarboxylate] showed a pIC50 of 4.52.
`COC(=O)c1c(C(F)F)nc(C(F)(F)F)c(CSc2cccc3cccnc23)c1CC(C)C` [Compound 202, Methyl 5-[(Quinolin-8-yl)thiomethyl]-2-(difluoromethyl)-4-(2-methylpropyl)-6-(trifluoromethyl)-3-pyridinecarboxylate] showed a pIC50 of 4.10.
`COC(=O)c1c(C(F)F)nc(C(F)(F)F)c(CSc2ncccn2)c1CC(C)C` [Compound 203, Methyl 5-[(Pyrimidin-2-yl)thiomethyl]-2-(difluoromethyl)-4-(2-methylpropyl)-6-(trifluoromethyl)-3-pyridinecarboxylate] gave a pIC50 of 4.15.
`COC(=O)c1c(C(F)F)nc(C(F)(F)F)c(CSc2ccc(NC(C)=O)cc2)c1CC(C)C` [Compound 204, Methyl 5-[(4-(Acetylamino)phenyl)thiomethyl]-2-(difluoromethyl)-4-(2-methylpropyl)-6-(trifluoromethyl)-3-pyridinecarboxylate] was tested, and the pIC50 was < 4.00.
In the case of `COC(=O)c1c(C(F)F)nc(C(F)(F)F)c(CSc2nc3ccccc3o2)c1CC(C)C` [Compound 205, Methyl 5-[(Benzoxazol-2-yl)thiomethyl]-2-(difluoromethyl)-4-(2-methylpropyl)-6-(trifluoromethyl)-3-pyridinecarboxylate], the pIC50 was 4.70.
Compound `COC(=O)c1c(C(F)F)nc(C(F)(F)F)c(CSc2ccc(Br)cc2OC(F)(F)F)c1CC(C)C` [Compound 206, Methyl 5-[(4-Bromo-2-(trifluoromethoxy)phenyl)thiomethyl]-2-(difluoromethyl)-4-(2-methylpropyl)-6-(trifluoromethyl)-3-pyridinecarboxylate] has a pIC50 of 4.30.
In the case of `COC(=O)c1c(C(F)F)nc(C(F)(F)F)c(CSc2ccccc2OC)c1CC(C)C` [Compound 208, Methyl 5-[(2-Methoxyphenyl)thiomethyl]-2-(difluoromethyl)-4-(2-methylpropyl)-6-(trifluoromethyl)-3-pyridinecarboxylate], the pIC50 was 4.22.
Compound `COC(=O)c1c(C(F)F)nc(C(F)(F)F)c(CSc2nc3ccc(C)cc3[nH]2)c1CC(C)C` [Compound 209, Methyl 5-[(5-Methylbenzimidazol-2-yl)thiomethyl]-2-(difluoromethyl)-4-(2-methylpropyl)-6-(trifluoromethyl)-3-pyridinecarboxylate] has a pIC50 of 5.00.
`COC(=O)c1c(C(F)F)nc(C(F)(F)F)c(CSc2nc3ccccc3[nH]2)c1CC(C)C` [Compound 210, Methyl 5-[(Benzimidazol-2-yl)thiomethyl]-2-(difluoromethyl)-4-(2-methylpropyl)-6-(trifluoromethyl)-3-pyridinecarboxylate] was tested, and the pIC50 was 4.70.
`COC(=O)c1c(C(F)F)nc(C(F)(F)F)c(CSc2cccc(OC)c2)c1CC(C)C` [Compound 211, Methyl 5-[(3-Methoxyphenyl)thiomethyl]-2-(difluoromethyl)-4-(2-methylpropyl)-6-(trifluoromethyl)-3-pyridinecarboxylate] showed a pIC50 of 4.35.
Work on `COC(=O)c1c(C(F)F)nc(C(F)(F)F)c(CSc2nc3ccccc3s2)c1CC(C)C` [Compound 212, Methyl 5-[(Benzothiazol-2-yl)thiomethyl]-2-(difluoromethyl)-4-(2-methylpropyl)-6-(trifluoromethyl)-3-pyridinecarboxylate] yielded a pIC50 of 4.82.
`COC(=O)c1c(C(F)F)nc(C(F)(F)F)c(CSc2cccc(Cl)c2)c1CC(C)C` [Compound 213, Methyl 5-[(3-Chlorophenyl)thiomethyl]-2-(difluoromethyl)-4-(2-methylpropyl)-6-(trifluoromethyl)-3-pyridinecarboxylate] gave a pIC50 of 4.82.
`COC(=O)c1c(C(F)F)nc(C(F)(F)F)c(CSc2ccccn2)c1CC(C)C` [Compound 216, Methyl 5-[(2-Pyridyl)thiomethyl]-2-(difluoromethyl)-4-(2-methylpropyl)-6-(trifluoromethyl)-3-pyridinecarboxylate] showed a pIC50 of 4.40.
Compound `COC(=O)c1c(C(F)F)nc(C(F)(F)F)c(CSc2ccccc2Br)c1CC(C)C` [Compound 217, Methyl 5-[(2-bromophenyl)thiomethyl]-2-(difluoromethyl)-4-(2-methylpropyl)-6-(trifluoromethyl)-3-pyridinecarboxylate] has a pIC50 of 4.30.

Same assay, conditions: Table 7, compounds of formula T-7; read-out: IC50
In the case of `COC(=O)c1c(C(F)F)nc(C(F)(F)F)c(SCc2ccccc2)c1CC(C)C` [Compound 219], the pIC50 was 4.60.
`COC(=O)c1c(C(F)F)nc(C(F)(F)F)c(SCc2ccc(Cl)cc2)c1CC(C)C` [Compound 220] was tested, and the pIC50 was 4.70.
With `COC(=O)c1c(C(F)F)nc(C(F)(F)F)c(SCc2ccc(OC)cc2)c1CC(C)C` [Compound 221] the pIC50 was 4.40.
Work on `COC(=O)c1c(C(F)F)nc(C(F)(F)F)c(SCc2ccc(OCc3ccccc3)c(OCc3ccccc3)c2)c1CC(C)C` [Compound 222] yielded a pIC50 of 4.82.
With `COC(=O)c1c(C(F)F)nc(C(F)(F)F)c(SCc2ccccc2[N+](=O)[O-])c1CC(C)C` [Compound 223] the pIC50 was 4.30.
In the case of `COC(=O)c1c(C(F)F)nc(C(F)(F)F)c(SCc2ccc(OCc3ccccc3)cc2)c1CC(C)C` [Compound 224], the pIC50 was 4.60.
`COC(=O)c1c(C(F)F)nc(C(F)(F)F)c(SCc2ccc(-c3ccccc3)cc2)c1CC(C)C` [Compound 225] was tested, and the pIC50 was 5.00.
With `COC(=O)c1c(C(F)F)nc(C(F)(F)F)c(SCc2ccc3c(c2Cl)OCO3)c1CC(C)C` [Compound 226, Methyl 5-[(2-Chloro-3,4-methylenedioxyphenyl)methylthio]-2-(difluoromethyl)-4-(2-methylpropyl)-6-(trifluoromethyl)-3-pyridinecarboxylate] the pIC50 was 4.22.
In the case of `COC(=O)c1c(C(F)F)nc(C(F)(F)F)c(SCc2c3ccccc3cc3ccccc23)c1CC(C)C` [Compound 227], the pIC50 was 4.52.
`COC(=O)c1c(C(F)F)nc(C(F)(F)F)c(SCc2cccc([N+](=O)[O-])c2)c1CC(C)C` [Compound 230] showed a pIC50 of 4.30.
Work on `COC(=O)c1c(C(F)F)nc(C(F)(F)F)c(SCc2ccccn2)c1CC(C)C` [Compound 233, Methyl 5-[(2-pyridyl)methylthio]-2-(difluoromethyl)-4-(2-methylpropyl)-6-(trifluoromethyl)-3-pyridinecarboxylate] yielded a pIC50 of 4.22.
`COC(=O)c1c(C(F)F)nc(C(F)(F)F)c(SCc2ccc(C(F)(F)F)cc2C(F)(F)F)c1CC(C)C` [Compound 234] was tested, and the pIC50 was 4.70.
`COC(=O)c1c(C(F)F)nc(C(F)(F)F)c(SCc2ccc(OC(F)(F)F)cc2)c1CC(C)C` [Compound 235] showed a pIC50 of 4.52.
Work on `COC(=O)c1c(C(F)F)nc(C(F)(F)F)c(SCc2ccc(Cl)cc2Cl)c1CC(C)C` [Compound 237] yielded a pIC50 of 4.52.
`COC(=O)c1c(C(F)F)nc(C(F)(F)F)c(SCc2ccccc2Br)c1CC(C)C` [Compound 239] gave a pIC50 of 4.35.
With `COC(=O)c1c(C(F)F)nc(C(F)(F)F)c(SCc2ccc3ccccc3n2)c1CC(C)C` [Compound 241, Methyl 5-[(2-quinolinyl)methylthio]-2-(difluoromethyl)-4-(2-methylpropyl)-6-(trifluoromethyl)-3-pyridinecarboxylate] the pIC50 was 4.30.
`COC(=O)c1c(C(F)F)nc(C(F)(F)F)c(SCc2cc(Cl)cc(Cl)c2)c1CC(C)C` [Compound 243] was tested, and the pIC50 was 4.30.
In the case of `COC(=O)c1c(C(F)F)nc(C(F)(F)F)c(SCc2c(F)c(F)c(F)c(F)c2F)c1CC(C)C` [Compound 244], the pIC50 was 4.30.
With `COC(=O)c1c(C(F)F)nc(C(F)(F)F)c(SCc2ccc3c(c2)C(C)(C)CCC3(C)C)c1CC(C)C` [Compound 245, Methyl 5-[(1,2,3,4-tetrahydro-1,1,4,4-tetramethyl-6-naphthyl)methylthio]-2-(difluoromethyl)-4-(2-methyl-propyl)-6-(trifluoromethyl)-3-pyridinecarboxylate] the pIC50 was 4.52.
`COC(=O)c1c(C(F)F)nc(C(F)(F)F)c(SCc2cc(Cl)cc3c2OCOC3)c1CC(C)C` [Compound 246, Methyl 5[(6-chloro-1,3-benzodioxan-8-yl)methylthio]-2-(difluoromethyl)-4-(2-methylpropyl)-6-(trifluoromethyl)-3-pyridinecarboxylate] gave a pIC50 of 4.52.

Same assay, conditions: Table 8; read-out: IC50
In the case of `Fc1ccc(-c2c(COCc3ccccc3)c(C(F)(F)F)nc(C(F)F)c2C(F)c2ccc(C(F)(F)F)cc2)cc1` (stereo not drawn) [Compound 248], the pIC50 was 4.11.
`OCc1c(C(F)(F)F)nc(C(F)F)c(C(F)c2ccc(C(F)(F)F)cc2)c1-c1ccc(F)cc1` (stereo not drawn) [Compound 249] gave a pIC50 of 5.30.
With `CCOC(=O)c1c(C(F)(F)F)nc(C(F)F)c(C(F)c2ccc(Cl)cc2)c1-c1ccc(F)cc1` (stereo not drawn) [Compound 250] the pIC50 was 4.40.
Compound `O=Cc1c(C(F)F)nc(C(F)(F)F)c(C(F)c2ccc(C(F)(F)F)cc2)c1-c1ccc(F)cc1` (stereo not drawn) [Compound 251] has a pIC50 of 5.15.
Compound `O=Cc1c(C(F)F)nc(C(F)(F)F)c(COCc2ccccc2)c1-c1ccc(F)cc1` [Compound 252] has a pIC50 of 5.35.

— patent publication US6794396B2, “Substituted pyridines useful for inhibiting cholesteryl ester transfer protein activity” (Pharmacia Corporation, priority 1998, dated 2004)
